Laboratory results reported in patent publication US20240100170A1, “CYCLIC-AMP RESPONSE ELEMENT BINDING PROTEIN (CBP) AND/OR ADENOVIRAL E1A BINDING PROTEIN OF 300 KDA (P300) DEGRADATION COMPOUNDS AND METHODS OF USE” (CULLGEN (SHANGHAI), INC., priority 2020, published 2024).
pIC50: −log10 of the molar value. Read-outs that look alike come from different tables or passages of the source.

Columns and labels:
[1] = target: P300 (Homo sapiens, UniProt Q09472); assay: percentage of inhibition (degradation) of p300 at 10 nM, Tables 2-4; assay type: cell-based; parameters: LNCaP or 22RV1 cells that express CBP/P300 proteins were treated with GNE-781 or the bivalent compounds; endogenous in cells; host or cells: LNCaP or 22RV1 (not given); details: read-out: Degradation (10 nM)
Method: Cultured cells or tissue chunks were washed with cold PBS once and lysed in cold RIPA buffer supplemented with protease inhibitors and phosphatase inhibitors (Beyotime Biotechnology). The solutions were then incubated at 4° C. for 30 minutes with gentle agitation to fully lyse cells. Cell lysates were centrifuged at 13,000 rpm for 10 minutes at 4° C. and pellets were discarded. Total protein concentrations in the lysates were determined by BCA assays (Beyotime Biotechnology). Cell lysates were mixed with Laemmli loading buffer to 1 X and heated at 99° C. for 5 min. Proteins were resolved on SDS-PAGE and visualized by chemiluminescence. Images were taken by a ChemiDoc MP Imaging system (Bio-Rad). Protein bands were quantitated using the accompanied software provided by Bio-Rad.

[2] = system: LNCaP prostate cancer cell; assay: LNCaP cell viability (CellTiter-Glo); assay type: cell-based; details: Homo sapiens, 72 h; LNCaP cell viability, 3 days, CellTiter-Glo; Table 4
Outline: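 LNCaP cells (5000/well, RPMI 1640 + 10% FBS, 37 °C) treated with compounds in 12-point 3-fold serial dilution for three days. Viability read by CellTiter-Glo luminescence, normalized to untreated cells; IC50 from least-squares nonlinear regression.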

P300, sequence (Q09472 whole entry): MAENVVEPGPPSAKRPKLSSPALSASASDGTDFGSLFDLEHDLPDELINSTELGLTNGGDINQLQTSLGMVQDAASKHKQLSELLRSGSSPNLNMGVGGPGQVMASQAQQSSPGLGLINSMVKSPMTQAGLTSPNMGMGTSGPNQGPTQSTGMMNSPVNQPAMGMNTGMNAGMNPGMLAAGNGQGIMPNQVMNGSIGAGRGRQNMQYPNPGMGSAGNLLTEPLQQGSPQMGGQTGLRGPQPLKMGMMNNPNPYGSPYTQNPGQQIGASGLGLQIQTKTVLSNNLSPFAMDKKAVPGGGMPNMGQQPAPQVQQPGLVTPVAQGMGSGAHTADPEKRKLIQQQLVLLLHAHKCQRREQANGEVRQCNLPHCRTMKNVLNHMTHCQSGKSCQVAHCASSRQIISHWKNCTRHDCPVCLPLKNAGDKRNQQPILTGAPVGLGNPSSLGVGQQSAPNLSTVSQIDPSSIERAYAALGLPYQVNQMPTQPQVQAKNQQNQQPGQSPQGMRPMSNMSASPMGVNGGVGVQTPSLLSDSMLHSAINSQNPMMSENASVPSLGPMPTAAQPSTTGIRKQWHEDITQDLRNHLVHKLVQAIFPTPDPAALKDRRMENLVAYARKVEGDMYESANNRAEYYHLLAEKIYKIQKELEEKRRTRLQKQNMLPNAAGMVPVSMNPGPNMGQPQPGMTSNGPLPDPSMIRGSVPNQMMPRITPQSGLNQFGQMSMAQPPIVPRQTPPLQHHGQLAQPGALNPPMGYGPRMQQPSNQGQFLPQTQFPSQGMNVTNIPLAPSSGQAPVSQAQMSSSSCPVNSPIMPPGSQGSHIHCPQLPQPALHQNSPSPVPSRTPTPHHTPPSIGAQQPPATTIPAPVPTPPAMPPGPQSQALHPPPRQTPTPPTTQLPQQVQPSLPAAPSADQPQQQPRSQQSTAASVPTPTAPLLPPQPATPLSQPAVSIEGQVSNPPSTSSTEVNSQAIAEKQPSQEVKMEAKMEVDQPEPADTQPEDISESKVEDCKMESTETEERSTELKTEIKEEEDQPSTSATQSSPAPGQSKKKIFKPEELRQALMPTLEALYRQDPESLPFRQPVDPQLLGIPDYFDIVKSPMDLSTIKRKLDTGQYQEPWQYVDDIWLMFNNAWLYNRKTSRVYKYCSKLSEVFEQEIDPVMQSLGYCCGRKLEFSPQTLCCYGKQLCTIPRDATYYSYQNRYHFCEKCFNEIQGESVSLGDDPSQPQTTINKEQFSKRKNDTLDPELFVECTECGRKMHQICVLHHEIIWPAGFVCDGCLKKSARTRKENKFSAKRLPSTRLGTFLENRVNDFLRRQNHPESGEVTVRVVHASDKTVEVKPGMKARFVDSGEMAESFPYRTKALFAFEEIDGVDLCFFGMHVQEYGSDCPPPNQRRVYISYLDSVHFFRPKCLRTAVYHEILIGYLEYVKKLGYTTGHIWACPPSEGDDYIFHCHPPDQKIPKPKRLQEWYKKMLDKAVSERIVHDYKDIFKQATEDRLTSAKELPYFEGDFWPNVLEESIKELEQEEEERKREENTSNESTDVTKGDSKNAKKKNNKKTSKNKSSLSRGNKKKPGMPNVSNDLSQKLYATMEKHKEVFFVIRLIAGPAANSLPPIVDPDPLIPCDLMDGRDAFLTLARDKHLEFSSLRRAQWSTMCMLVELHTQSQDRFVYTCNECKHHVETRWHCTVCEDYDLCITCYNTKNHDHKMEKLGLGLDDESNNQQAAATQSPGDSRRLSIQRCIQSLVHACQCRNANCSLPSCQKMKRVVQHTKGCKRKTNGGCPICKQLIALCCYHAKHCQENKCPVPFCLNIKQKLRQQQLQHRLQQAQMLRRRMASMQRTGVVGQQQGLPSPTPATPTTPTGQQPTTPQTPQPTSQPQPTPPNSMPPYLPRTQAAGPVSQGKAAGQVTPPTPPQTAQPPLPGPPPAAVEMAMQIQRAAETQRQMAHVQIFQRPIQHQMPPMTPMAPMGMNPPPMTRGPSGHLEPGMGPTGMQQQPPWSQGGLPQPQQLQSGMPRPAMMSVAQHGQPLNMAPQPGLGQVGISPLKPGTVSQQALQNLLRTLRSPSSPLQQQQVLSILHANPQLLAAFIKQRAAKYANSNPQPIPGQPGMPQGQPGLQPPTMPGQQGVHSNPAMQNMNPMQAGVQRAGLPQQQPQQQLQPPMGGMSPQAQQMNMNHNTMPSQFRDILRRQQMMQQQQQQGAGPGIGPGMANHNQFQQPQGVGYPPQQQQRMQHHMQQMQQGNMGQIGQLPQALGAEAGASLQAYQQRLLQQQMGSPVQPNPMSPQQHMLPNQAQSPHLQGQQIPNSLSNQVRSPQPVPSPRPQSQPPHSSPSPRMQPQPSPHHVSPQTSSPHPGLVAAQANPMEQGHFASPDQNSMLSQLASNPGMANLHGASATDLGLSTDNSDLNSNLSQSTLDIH

| Compound | inhibition at 0.01 µM ([1]; p300, 10 nM, Table 4) | pIC50 [2] | inhibition at 0.01 µM [1] |
| --- | --- | --- | --- |
| CC(=O)N1CCc2c(c(N3CCCc4cc(-c5cnn(C)c5)c(C(F)F)cc43)nn2C2CCN(CCCN3CCC(CNc4cccc5c4C(=O)N(C4CCC(=O)NC4=O)C5=O)CC3)CC2)C1 (stereo not drawn) [P-193, 4-(((1-(3-(4-(5-acetyl-3-(7-(difluoromethyl)-6-(1-methyl-1H-pyrazol-4-yl)-3,4-dihydroquinolin-1(2H)-yl)-4,5,6,7-tetrahydro-1H-pyrazolo[4,3-c]pyridin-1-yl)piperidin-1-yl)propyl)piperidin-4-yl)methyl)amino)-2-(2,6-dioxopiperidin-3-yl)isoindoline-1,3-dione] | > 80% | 8.49 |  |
| CC(=O)N1CCc2c(c(N3CCCc4cc(-c5cnn(C)c5)c(C(F)F)cc43)nn2C2CCN(Cc3ccc(COc4cccc5c4C(=O)N(C4CCC(=O)NC4=O)C5)cc3)CC2)C1 (stereo not drawn) [P-194, 3-(7-((4-((4-(5-acetyl-3-(7-(difluoromethyl)-6-(1-methyl-1H-pyrazol-4-yl)-3,4-dihydroquinolin-1(2H)-yl)-4,5,6,7-tetrahydro-1H-pyrazolo[4,3-c]pyridin-1-yl)piperidin-1-yl)methyl)benzyl)oxy)-1-oxoisoindolin-2-yl)piperidine-2,6-dione] | > 80% | 8.31 |  |
| CC(=O)N1CCc2c(c(N3CCCc4cc(-c5cnn(C)c5)c(C(F)F)cc43)nn2C2CCN(Cc3ccc(COc4cccc5c4C(=O)N(C4CCC(=O)NC4=O)C5=O)cc3)CC2)C1 (stereo not drawn) [P-195, 4-((4-((4-(5-acetyl-3-(7-(difluoromethyl)-6-(1-methyl-1H-pyrazol-4-yl)-3,4-dihydroquinolin-1(2H)-yl)-4,5,6,7-tetrahydro-1H-pyrazolo[4,3-c]pyridin-1-yl)piperidin-1-yl)methyl)benzyl)oxy)-2-(2,6-dioxopiperidin-3-yl)isoindoline-1,3-dione] | 50 to 80% | 7.75 |  |
| CC(=O)N1CCc2c(c(N3CCCc4cc(-c5cnn(C)c5)c(C(F)F)cc43)nn2C2CCN(Cc3ccc(CNc4cccc5c4CN(C4CCC(=O)NC4=O)C5=O)nc3)CC2)C1 (stereo not drawn) [P-196, 3-(4-(((5-((4-(5-acetyl-3-(7-(difluoromethyl)-6-(1-methyl-1H-pyrazol-4-yl)-3,4-dihydroquinolin-1(2H)-yl)-4,5,6,7-tetrahydro-1H-pyrazolo[4,3-c]pyridin-1-yl)piperidin-1-yl)methyl)pyridin-2-yl)methyl)amino)-1-oxoisoindolin-2-yl)piperidine-2,6-dione] | > 80% | 8.62 |  |
| CC(=O)N1CCc2c(c(N3CCCc4cc(-c5cnn(C)c5)c(C(F)F)cc43)nn2C2CCN(CCN3CCOC(CNc4cccc5c4C(=O)N(C4CCC(=O)NC4=O)C5)C3)CC2)C1 (stereo not drawn) [P-198, 3-(7-(((4-(2-(4-(5-acetyl-3-(7-(difluoromethyl)-6-(1-methyl-1H-pyrazol-4-yl)-3,4-dihydroquinolin-1(2H)-yl)-4,5,6,7-tetrahydro-1H-pyrazolo[4,3-c]pyridin-1-yl)piperidin-1-yl)ethyl)morpholin-2-yl)methyl)amino)-1-oxoisoindolin-2-yl)piperidine-2,6-dione] |  | 8.62 | > 80% |
| CC(=O)N1CCc2c(c(N3CCCc4cc(-c5cnn(C)c5)c(C(F)F)cc43)nn2C2CCN(Cc3ccc(CNc4cccc5c4CN(C4CCC(=O)NC4=O)C5=O)cc3)CC2)C1 (stereo not drawn) [P-200] | 50 to 80% | 8.10 |  |
| CC(=O)N1CCc2c(c(N3CCCc4cc(-c5cnn(C)c5)c(C(F)F)cc43)nn2C2CCN(CCCCC3CN(c4cccc5c4C(=O)N(C4CCC(=O)NC4=O)C5=O)C3)CC2)C1 (stereo not drawn) [P-201, 4-(3-(4-(4-(5-acetyl-3-(7-(difluoromethyl)-6-(1-methyl-1H-pyrazol-4-yl)-3,4-dihydroquinolin-1(2H)-yl)-4,5,6,7-tetrahydro-1H-pyrazolo[4,3-c]pyridin-1-yl)piperidin-1-yl)butyl)azetidin-1-yl)-2-(2,6-dioxopiperidin-3-yl)isoindoline-1,3-dione] | > 80% | 7.98 |  |
| CC(=O)N1CCc2c(c(N3CCCc4cc(-c5cnn(C)c5)c(C(F)F)cc43)nn2C2CCN(Cc3cccc(COc4cccc5c4CN(C4CCC(=O)NC4=O)C5=O)c3)CC2)C1 (stereo not drawn) [P-202, 3-(4-((3-((4-(5-acetyl-3-(7-(difluoromethyl)-6-(1-methyl-1H-pyrazol-4-yl)-3,4-dihydroquinolin-1(2H)-yl)-4,5,6,7-tetrahydro-1H-pyrazolo[4,3-c]pyridin-1-yl)piperidin-1-yl)methyl)benzyl)oxy)-1-oxoisoindolin-2-yl)piperidine-2,6-dione] | 50 to 80% | 8.51 |  |
| CC(=O)N1CCc2c(c(N3CCCc4cc(-c5cnn(C)c5)c(C(F)F)cc43)nn2C2CCN(C(=O)CCN3CCC(Cn4c(=O)n(C5CCC(=O)NC5=O)c5ccccc54)CC3)CC2)C1 (stereo not drawn) [P-205, 3-(3-((1-(3-(4-(5-acetyl-3-(7-(difluoromethyl)-6-(1-methyl-1H-pyrazol-4-yl)-3,4-dihydroquinolin-1(2H)-yl)-4,5,6,7-tetrahydro-1H-pyrazolo[4,3-c]pyridin-1-yl)piperidin-1-yl)-3-oxopropyl)piperidin-4-yl)methyl)-2-oxo-2,3-dihydro-1H-benzo[d]imidazol-1-yl)piperidine-2,6-dione] | < 20% | 6.80 |  |
| CC(=O)N1CCc2c(c(N3CCCc4cc(-c5cnn(C)c5)c(C(F)F)cc43)nn2C2CCN(C(=O)CCN3CCN(Cc4cccc5c4n(C)c(=O)n5C4CCC(=O)NC4=O)CC3)CC2)C1 (stereo not drawn) [P-208, 3-(4-((4-(3-(4-(5-Acetyl-3-(7-(difluoromethyl)-6-(1-methyl-1H-pyrazol-4-yl)-3,4-dihydroquinolin-1(2H)-yl)-4,5,6,7-tetrahydro-1H-pyrazolo[4,3-c]pyridin-1-yl)piperidin-1-yl)-3-oxopropyl)piperazin-1-yl)methyl)-3-methyl-2-oxo-2,3-dihydro-1H-benzo[d]imidazol-1-yl)piperidine-2,6-dione] | > 80% | 7.71 |  |
| CC(=O)N1CCc2c(c(N3CCCc4cc(-c5cnn(C)c5)c(C(F)F)cc43)nn2C2CCN(C(=O)CCCN3CCC(C#Cc4ccc5c(c4)n(C)c(=O)n5C4CCC(=O)NC4=O)CC3)CC2)C1 (stereo not drawn) [P-211, 3-(5-((1-(4-(4-(5-acetyl-3-(7-(difluoromethyl)-6-(1-methyl-1H-pyrazol-4-yl)-3,4-dihydroquinolin-1(2H)-yl)-4,5,6,7-tetrahydro-1H-pyrazolo[4,3-c]pyridin-1-yl)piperidin-1-yl)-4-oxobutyl)piperidin-4-yl)ethynyl)-3-methyl-2-oxo-2,3-dihydro-1H-benzo[d]imidazol-1-yl)piperidine-2,6-dione] | > 80% | 8.46 |  |
| CC(=O)N1CCc2c(c(N3CCCc4cc(-c5cnn(C)c5)c(C(F)F)cc43)nn2C2CCN(C(=O)CCN3CCC(C#Cc4ccc5c(c4)n(C)c(=O)n5C4CCC(=O)NC4=O)CC3)CC2)C1 (stereo not drawn) [P-212, 3-(5-((1-(3-(4-(5-acetyl-3-(7-(difluoromethyl)-6-(1-methyl-1H-pyrazol-4-yl)-3,4-dihydroquinolin-1(2H)-yl)-4,5,6,7-tetrahydro-1H-pyrazolo[4,3-c]pyridin-1-yl)piperidin-1-yl)-3-oxopropyl)piperidin-4-yl)ethynyl)-3-methyl-2-oxo-2,3-dihydro-1H-benzo[d]imidazol-1-yl)piperidine-2,6-dione] | > 80% | 8.26 |  |
| CC(=O)N1CCc2c(c(N3CCCc4cc(-c5cnn(C)c5)c(C(F)F)cc43)nn2C2CCN(C(=O)CCN3CCC(CNc4cccc5c4n(C)c(=O)n5C4CCC(=O)NC4=O)CC3)CC2)C1 (stereo not drawn) [P-213, 3-(4-(((1-(3-(4-(5-Acetyl-3-(7-(difluoromethyl)-6-(1-methyl-1H-pyrazol-4-yl)-3,4-dihydroquinolin-1(2H)-yl)-4,5,6,7-tetrahydro-1H-pyrazolo[4,3-c]pyridin-1-yl)piperidin-1-yl)-3-oxopropyl)piperidin-4-yl)methyl)amino)-3-methyl-2-oxo-2,3-dihydro-1H-benzo[d]imidazol-1-yl)piperidine-2,6-dione] | < 20% | 7.01 |  |
| CC(=O)N1CCc2c(c(N3CCCc4cc(-c5cnn(C)c5)c(C(F)F)cc43)nn2C2CCN(C(=O)CCCN3CCC(CNc4cccc5c4n(C)c(=O)n5C4CCC(=O)NC4=O)CC3)CC2)C1 (stereo not drawn) [P-214, 3-(4-(((1-(4-(4-(5-Acetyl-3-(7-(difluoromethyl)-6-(1-methyl-1H-pyrazol-4-yl)-3,4-dihydroquinolin-1(2H)-yl)-4,5,6,7-tetrahydro-1H-pyrazolo[4,3-c]pyridin-1-yl)piperidin-1-yl)-4-oxobutyl)piperidin-4-yl)methyl)amino)-3-methyl-2-oxo-2,3-dihydro-1H-benzo[d]imidazol-1-yl)piperidine-2,6-dione] | 20 to 50% | 7.29 |  |
| CC(=O)N1CCc2c(c(N3CCCc4cc(-c5cnn(C)c5)c(C(F)F)cc43)nn2C2CCN(C(=O)CCCN3CCN(Cc4ccc5c(c4)n(C)c(=O)n5C4CCC(=O)NC4=O)CC3)CC2)C1 (stereo not drawn) [P-215, 3-(5-((4-(4-(4-(5-Acetyl-3-(7-(difluoromethyl)-6-(1-methyl-1H-pyrazol-4-yl)-3,4-dihydroquinolin-1(2H)-yl)-4,5,6,7-tetrahydro-1H-pyrazolo[4,3-c]pyridin-1-yl)piperidin-1-yl)-4-oxobutyl)piperazin-1-yl)methyl)-3-methyl-2-oxo-2,3-dihydro-1H-benzo[d]imidazol-1-yl)piperidine-2,6-dione] | 20 to 50% | 7.48 |  |
